Results reported in patent US9989519B1, “Method for determining in vitro bioequivalence of a sucralfate suspension sample to a sucralfate suspension reference listed drug (RLD)” (Clayton Pharmaceuticals, LLC, priority 2017, dated 2018).

System: Caco-2 cell monolayers
Experiment: Indomethacin-induced damage (loss of TEER) in Caco-2 cell monolayers, assay development
Assay type: cell-based, human
Experimental: Considering the fact that the Caco-2 cell model mimics the human intestinal mucosa, and that the intraluminal pH of the small intestine ranges from approximately 6.0 to 7.4, evaluation of the damage induced by indomethacin (the chosen ulcerogenic agent, the use of which was previously reported) was performed at these two pH conditions. The choice of 0.75 mM indomethacin was based on earlier observations reported for a similar evaluation using Caco-2 cells for this initial assay development stage. For each pH condition, the damage was measured by comparing the TEER values of indomethacin-treated cell monolayers with those of control cell monolayers before and after the assay, and the % of TEER remaining (compared to the control treatment) was calculated. The results are illustrated below in FIG. 7. […] In contrast, for the assay with the pH condition of 6.0, approximately 50% of the TEER was lost by two hours and nearly 80% of the TEER was lost by the end of the assay duration of 5 hours. […] Therefore, pH 6.0 was selected as the optimal pH condition on the apical (modeling the luminal) side for this assay. It was also noted that the majority of the damage was caused between 2 and 3 hours of duration; any additional damage after three hours was marginal. For this reason, further evaluations were performed at a truncated duration of 2 to 3 hours. Considering the fact that significant damage to the cells was induced post two hours in the assessment above and the fact that a shorter assay duration would be desirable for the purposes of experimental logistics, different concentrations (1, 1.5 and 2 mM) of indomethacin were tested to understand the extent of damage caused to the cell monolayers as a function of indomethacin concentration using apical pH of 6.0 and a 3 hour duration. […] Therefore, a concentration of 2 mM was selected as the optimal concentration for this assay.

SMILES: COc1ccc2c(c1)c(CC(=O)O)c(C)n2C(=O)c1ccc(Cl)cc1 [indomethacin]
- damage to the cell monolayers as a function of indomethacin concentration (2 mM (1, 1.5 and 2 mM tested), apical pH 6.0, 3 hour duration): Maximum damage
- TEER lost (indomethacin 0.75 mM, apical pH 6.0, 5 hours): ~80%
- TEER lost (indomethacin 0.75 mM, apical pH 6.0, two hours): approximately 50%
- loss of TEER (indomethacin 0.75 mM, pH 7.4, 5 hours): a significant loss of TEER was not observed
